Earlier results, collected in patent US20240401150A1, “PANCREATIC DUCTAL ADENOCARCINOMA SIGNATURES AND USES THEREOF” (The Broad Institute, Inc., priority 2022, published 2024).

Columns and labels:
CXCR4 = CXCR4 (Homo sapiens, UniProt P61073); conditions: literature (ref 133)
[1] = test system: intra-tumoral cytotoxic T cells; conditions: previously identified (refs 20, 61)

CXCR4, sequence (P61073 whole entry): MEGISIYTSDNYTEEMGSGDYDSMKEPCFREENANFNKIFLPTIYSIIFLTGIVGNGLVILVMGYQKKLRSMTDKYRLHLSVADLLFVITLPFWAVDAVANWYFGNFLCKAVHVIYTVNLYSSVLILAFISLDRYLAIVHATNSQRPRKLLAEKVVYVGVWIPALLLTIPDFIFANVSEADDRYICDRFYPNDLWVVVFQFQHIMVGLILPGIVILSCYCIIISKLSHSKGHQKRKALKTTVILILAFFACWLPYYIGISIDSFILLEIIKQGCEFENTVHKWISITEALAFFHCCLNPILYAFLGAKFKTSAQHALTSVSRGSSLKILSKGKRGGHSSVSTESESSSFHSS

effect of clinical inhibition of CXCR4 (CXCR4) | SMILES | intra-tumoral cytotoxic T cell activity [1]
integrated immune response^133 | c1cc(CN2CCCNCCNCCCNCC2)ccc1CN1CCCNCCNCCCNCC1 [AMD3100] | 
 | CCCCc1nc(Cl)c(CO)n1Cc1ccc(-c2ccccc2-c2nn[nH]n2)cc1 [losartan] | increase
